Assay results as given in patent US4413007A, “Pesticidal symmetrical N-substituted bis-carbamoyloximino disulfide compounds” (priority 1978, dated 1983).

How the values were obtained:
[1] = Peroral toxicity to mammals (rat); settings: in vivo, po, 50 percent mortality, read-out: A.O. Rat (LD50)
Procedure: Certain of these compositions were also evaluated to determine their peroral toxicity to mammals. The animal selected for this experiment was the rat. The test results obtained are expressed in terms of the number of milligrams of compositions per kilogram of weight of the animal required to achieve a mortality rate of 50 percent (LD50).

[2] = system: Mexican bean beetle (Epilachna varivestis, Muls.); experiment: Mexican Bean Beetle Leaf Spray Test; format: in vivo; set-up: key: A: excellent control; B: partial control; C: no control; settings: 500 ppm, three days
Procedure: (§1) Suspensions of the test compounds were prepared by dissolving one gram of compound in 50 milliliters of acetone in which had been dissolved 0.1 gram (10 percent of the weight of compound) of an alkylphenoxy polyethoxyethanol surfactant, as an emulsifying or dispersing agent. The resulting solution was mixed into 150 milliliters of water to give roughly 200 milliliters of a suspension containing the compound in finely divided form. The thus-prepared stock suspension contained 0.5 percent by weight of compound. The test concentrations in parts per million by weight employed in the tests described hereinbelow were obtained by appropriate dilutions of the stock suspension with water. The test procedures were as follows:
Fourth instar larvae of the Mexican bean beetle (Epilachna varivestis, Muls.), reared on Tendergreen bean plants at a temperature of 80±5° F. and 50±5 percent relative humidity, were the test insects.
The test compounds were formulated by diluting the stock suspension with water to give a suspension containing 500 parts of test compound per million parts of final formulation. Potted Tendergreen bean plants of standard height and age were placed on a revolving turntable and sprayed with 100-110 milliliters of test compound formulation by use of a DeVilbiss spray gun set at 10 psig air pressure. The application, which lasted 25 seconds, was sufficient to wet plants to run-off. As a control, 100-110 milliliters of a water-acetone-emulsifier solution containing no test compound were also sprayed on infested plants. When dry, the paired leaves were separated and each was placed in a 9 centimeter Petri dish lined with moistened filter paper. Five randomly selected larvae were introduced into each dish, and the dishes were closed. The closed dishes were labeled and held at a temperature of 80±5° F. for three days. Although the larvae could easily consume the leaf within 24 to 48 hours, no more food was added. Larvae which were unable to move the length of the body, even upon stimulation, were considered dead.
(§2) In these tests the pesticidal activity of the compounds against aphid, mite, Southern Armyworm, Bean Beetle and house fly was rated as follows: […]

[3] = system: house flies (Musca domestica, L.); experiment: Fly Bait Test; format: in vivo; set-up: key: A: excellent control; B: partial control; C: no control; settings: 500 ppm in sugar solution, twenty four hours
Procedure: as §1
Four to six day old adult house flies (Musca domestica, L.) reared according to the specifications of the Chemical Specialities Manufacturing Association (Blue Book, McNair-Dorland Co., N.Y. 1954; pages 243-244, 261) under controlled conditions of 80±5° F. and 50±5 percent relative humidity, were the test insects. The flies were immobilized by anesthetizing with carbon dioxide and twenty five immobilized individuals,males and females, were transferred to a cage consisting of a standard food strainer about five inches in diameter which was inverted over a wrapping-paper-covered surface. The test compounds were formulated by diluting the stock suspension with a 10 percent (by weight) sugar solution to give a suspension containing 500 parts of test compound per million parts of final formulation, by weight. Ten milliliters of the test formulation were added to a souffle cup containing a one-inch square of an absorbent cotton pad. This bait cup was introduced and centered on the blotting paper under the food strainer prior to admitting the anesthetized flies. The caged flies were allowed to feed on the bait for twenty four hours, at a temperature of 80±5° F. and the relative humidity of 50±5 percent.
as §2

SMILES	LD50 [1] [mg/kg]	Mexican Bean Beetle control rating [2]	House-Fly control rating [3]
CC(=NOC(=O)N(C)SSN(C)C(=O)ON=C(C)SCCC#N)SCCC#N [N,N'-Bis-[1-(2-Cyanoethylthio)acetaldehyde O-(N-methylcarbamoyl)oxime]disulfide]	80	A	A
CN(SSN(C)C(=O)ON=C1CSCCS1)C(=O)ON=C1CSCCS1 [N,N'-Bis-[1,4-Dithiane-2-O-(N-methylcarbamoyl)oximino]disulfide]	160	A	A
CSC(C)=NOC(=O)N(C)SSN(C)C(=O)ON=C(C)SC [N,N'-Bis-[1-Methylthioacetaldehyde O-(N-methylcarbamoyl)oxime]disulfide]	190	A	A
